Test results published in patent publication US20260354380A1, “PYRAZOLO PESTICIDAL COMPOUNDS” (BASF SE, priority 2022, published 2026).

Key:
Format in all cases: in vivo
[1] = system: Spodoptera eridania; assay: Action on Southern Armyworm (Spodoptera eridania), 2nd Instar Larvae; settings: 300 ppm; 2nd instar larvae; 4 days after treatment
Procedure, shortened: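 Compounds in 50% acetone/water with 0.01% nonionic surfactant sprayed electrostatically onto Lima bean plants at 1st true leaf stage. After drying, 10–11 2nd-instar larvae bagged with each pot, kept about 25 °C, 20–40% RH. Mortality and reduced feeding scored at 4 days vs untreated plants.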

[2] = system: Heliothis virescens; assay: Action on Tobacco Budworm (Heliothis virescens); settings: 800 ppm; egg and larval mortality; 5 days
Procedure, shortened: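 Compounds in 25% DMSO/75% water were sprayed at several concentrations onto insect diet in microtiter wells holding 15-25 eggs, two replications. After 5 days at about 28±1 °C and 80±5% RH, egg and larval mortality was scored visually.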

[3] = system: Plutella xylostella; assay: Action on Diamond Back Moth (Plutella xylostella), microtiter plates, insect diet, eggs; settings: 800 ppm; egg and larval mortality; 5 days
Description: Example B8: Action on Diamond Back Moth (Plutella xylostella)
For evaluating control of diamond back moth (Plutella xylostella) the test unit consisted of 96-well-microtiter plates containing an insect diet and 15-25 P. xylostella eggs. The compounds or mixtures were formulated using a solution containing 75% water and 25% DMSO. Different concentrations of formulated compounds or mixtures were sprayed onto the insect diet at 5 μl, using a custom-built micro atomizer, at two replications. For experimental mixtures in these tests identical volumes of both mixing partners at the desired concentrations respectively, were mixed together. After application, microtiter plates were incubated at 28±1 °C, 80±5% RH for 5 days. Egg and larval mortality was then visually assessed.

[4] = system: Anthonomus grandis; assay: Action on Boll Weevil (Anthonomus grandis); settings: 800 ppm; egg and larval mortality; 5 days
Procedure, shortened: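 Compounds in 75:25 water:DMSO sprayed at several concentrations onto insect diet in microtiter wells holding 5-10 eggs, two replicates. Plates kept 5 days at about 25±1 °C and 75±5% RH; egg and larval mortality scored visually.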

[5] = system: Aedes aegypti; assay: whole plant or invertebrate; settings: 800 ppm; larvae; 2 days
Procedure, shortened: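 Freshly hatched larvae (5-15 per well) were held in tap water, and compounds formulated in 25% DMSO/water were sprayed onto diet at several concentrations in duplicate. Larval mortality was scored visually after 2 days at 28±1 °C, 80±5% RH.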

With `Cc1ccc(C(C)C)c(N2C(=O)CSC2=NC(=O)Nc2ccc(-n3nc(C)c(NC(=O)c4ccc(Cl)cc4F)c3C)cc2)c1` [Example C-110] the “mortality in comparison with untreated controls” value (from here on “mortality in comparison”) [1] was “at least 75%”, the “mortality in comparison” value [2] was “at least 75%” and the “mortality in comparison” value [3] was “at least 75%”. The “mortality in comparison” value [4] was “at least 75%” and the “mortality in comparison” value [5] was “at least 50%”.
In the case of `Cc1ccc(C(C)C)c(N2C(=O)CSC2=NC(=O)Nc2ccc(-n3nc(C)c(NC(=O)c4cc(F)c(F)c(F)c4)c3C)cc2)c1` [Example C-117], the “mortality in comparison” value [1] was “at least 75%”, the “mortality in comparison” value [2] was “at least 75%” and the “mortality in comparison” value [3] was “at least 75%”. The “mortality in comparison” value [4] was “at least 75%” and the “mortality in comparison” value [5] was “at least 50%”.
For `Cc1nn(-c2ccc(NC(=O)NC(=S)Nc3ccccc3C(C)C)cc2)cc1NC(=O)c1ccc(OC(F)(F)F)cc1` [Example C-126], the “mortality in comparison” value [1] was “at least 75%”, the “mortality in comparison” value [2] was “at least 75%” and the “mortality in comparison” value [3] was “at least 75%”. The “mortality in comparison” value [4] was “at least 75%” and the “mortality in comparison” value [5] was “at least 50%”.
In the case of `Cc1ccc(C(C)C)c(N2C(=O)CSC2=NC(=O)Nc2ccc(-n3nc(C)c(NC(=O)c4ccc(C(Cl)Cl)cc4)c3C)cc2)c1` [Example C-122], the “mortality in comparison” value [3] was “at least 75%” and the “mortality in comparison” value [4] was “at least 75%”.
For `Cc1ccc(C(C)C)c(N2C(=O)CS/C2=N\C(=O)Nc2c(C)cc(-n3nc(C)c(NC(=O)c4ccc(OC(F)(F)F)cc4)c3C)cc2Cl)c1` [Example C-105], the “mortality in comparison” value [1] was “at least 75%”, the “mortality in comparison” value [2] was “at least 75%” and the “mortality in comparison” value [3] was “at least 75%”. The “mortality in comparison” value [4] was “at least 75%” and the “mortality in comparison” value [5] was “at least 50%”.
With `Cc1ccc(C(C)C)c(N2C(=O)CSC2=NC(=O)Nc2ccc(-n3nc(C)c(NC(=O)c4ccc(Br)c(C#N)c4)c3C)cc2)c1` [Example C-121] the “mortality in comparison” value [1] was “at least 75%”, the “mortality in comparison” value [3] was “at least 75%” and the “mortality in comparison” value [4] was “at least 75%”. For the same compound, the “mortality in comparison” value [5] was “at least 50%”.
For `CCN(C(=O)c1ccc(Cl)c(Cl)c1)c1c(C)nn(-c2ccc(NC(=O)/N=C3\SCC(=O)N3c3cc(C)ccc3C(C)C)c(Cl)c2)c1C` [Example C-103], the “mortality in comparison” value [1] was “at least 75%”, the “mortality in comparison” value [2] was “at least 75%” and the “mortality in comparison” value [3] was “at least 75%”. The “mortality in comparison” value [4] was “at least 75%” and the “mortality in comparison” value [5] was “at least 50%”.
`Cc1ccc(C(C)C)c(N2C(=O)CSC2=NC(=O)Nc2ccc(-n3nc(C)c(NC(=O)c4ccc(C#N)c(F)c4)c3C)cc2)c1` [Example C-108] was tested, and the “mortality in comparison” value [1] was “at least 75%”, the “mortality in comparison” value [2] was “at least 75%” and the “mortality in comparison” value [3] was “at least 75%”. For the same compound, the “mortality in comparison” value [4] was “at least 75%” and the “mortality in comparison” value [5] was “at least 50%”.
`Cc1ccc(C(C)C)c(N2C(=O)CSC2=NC(=O)Nc2ccc(-n3cc(NC(=O)c4ccc(N=S(C)(C)=O)cc4)c(C)n3)cc2)c1` [Example C-55] was tested, and the “mortality in comparison” value [3] was “at least 75%” and the “mortality in comparison” value [4] was “at least 75%”.
With `Cc1ccc(C(C)C)c(N2C(=O)CS/C2=N\C(=O)Nc2ccc(-n3nc(C)c(NC(=O)c4ccc(Cl)c(Cl)c4)c3C)cc2Cl)c1` [Example C-102] the “mortality in comparison” value [1] was “at least 75%”, the “mortality in comparison” value [2] was “at least 75%” and the “mortality in comparison” value [3] was “at least 75%”. For the same compound, the “mortality in comparison” value [4] was “at least 75%” and the “mortality in comparison” value [5] was “at least 50%”.
With `Cc1ccc(C(C)C)c(N2C(=O)CSC2=NC(=O)Nc2ccc(-n3cc(NC(=O)c4ccc(OC(C)C)cc4)c(C)n3)cc2)c1` [Example C-48] the “mortality in comparison” value [1] was “at least 75%”, the “mortality in comparison” value [2] was “at least 75%” and the “mortality in comparison” value [3] was “at least 75%”.
For `Cc1ccc(C(C)C)c(N2C(=O)CSC2=NC(=O)Nc2ccc(-n3cc(NC(=O)c4ccc(Cl)nc4)c(C)n3)cc2)c1` [Example C-66], the “mortality in comparison” value [2] was “at least 75%”, the “mortality in comparison” value [3] was “at least 75%” and the “mortality in comparison” value [4] was “at least 75%”. For the same compound, the “mortality in comparison” value [5] was “at least 50%”.
In the case of `Cc1ccc(C(C)C)c(N2C(=O)CSC2=NC(=O)Nc2ccc(-n3cc(NC(=O)c4ccc(S(C)(=O)=O)c(F)c4)c(C)n3)cc2)c1` [Example C-57], the “mortality in comparison” value [2] was “at least 75%” and the “mortality in comparison” value [3] was “at least 75%”.
For `Cc1ccc(C(C)C)c(N2C(=O)CSC2=NC(=O)Nc2ccc(-n3cc(NC(=O)c4cncnc4)c(C)n3)cc2)c1` [Example C-68], the “mortality in comparison” value [1] was “at least 75%”, the “mortality in comparison” value [2] was “at least 75%” and the “mortality in comparison” value [3] was “at least 75%”. The “mortality in comparison” value [4] was “at least 75%”.
In the case of `Cc1ccc(C(C)C)c(N2C(=O)CSC2=NC(=O)Nc2ccc(-n3cc(NC(=O)c4ccc(C(C)(C)C#N)cc4)c(C)n3)cc2)c1` [Example C-56], the “mortality in comparison” value [1] was “at least 75%”, the “mortality in comparison” value [2] was “at least 75%” and the “mortality in comparison” value [3] was “at least 75%”.
For `Cc1ccc(C(C)C)c(N2C(=O)CSC2=NC(=O)Nc2ccc(-n3cc(NC(=O)c4ccc(C5CCC5)cc4)c(C)n3)cc2)c1` [Example C-58], the “mortality in comparison” value [2] was “at least 75%”, the “mortality in comparison” value [3] was “at least 75%” and the “mortality in comparison” value [4] was “at least 75%”.
For `Cc1ccc(C(C)C)c(N2C(=O)CS/C2=N\C(=O)Nc2ccc(-n3cc(NC(=O)c4ccc(Cl)cc4Cl)c(C)n3)cc2)c1` [Example C-27], the “mortality in comparison” value [1] was “at least 75%”, the “mortality in comparison” value [2] was “at least 75%” and the “mortality in comparison” value [3] was “at least 75%”. For the same compound, the “mortality in comparison” value [4] was “at least 75%”.
With `Cc1ccc(C(C)C)c(N2C(=O)CSC2=NC(=O)Nc2ccc(-n3cc(NC(=O)c4ccc(C5COC5)cc4)c(C)n3)cc2)c1` [Example C-52] the “mortality in comparison” value [2] was “at least 75%”, the “mortality in comparison” value [3] was “at least 75%” and the “mortality in comparison” value [4] was “at least 75%”.
With `Cc1ccc(C(C)C)c(N2C(=O)CSC2=NC(=O)Nc2ccc(-n3cc(NC(=O)c4ccc(S(C)(=O)=O)cn4)c(C)n3)cc2)c1` [Example C-38] the “mortality in comparison” value [1] was “at least 75%”, the “mortality in comparison” value [2] was “at least 75%” and the “mortality in comparison” value [3] was “at least 75%”. For the same compound, the “mortality in comparison” value [4] was “at least 75%”.
In the case of `Cc1ccc(C(C)C)c(NC(=S)NC(=O)Nc2ccc(-n3cc(NC(=O)c4ccc(OC(F)(F)F)cc4)c(C)n3)cc2)c1` [Example C-127], the “mortality in comparison” value [1] was “at least 75%”, the “mortality in comparison” value [2] was “at least 75%” and the “mortality in comparison” value [3] was “at least 75%”. The “mortality in comparison” value [4] was “at least 75%”.
In the case of `Cc1ccc(C(C)C)c(N2C(=O)CSC2=NC(=O)Nc2ccc(-n3nc(C)c(NC(=O)c4ccc(F)c(Cl)c4)c3C)cc2)c1` [Example C-113], the “mortality in comparison” value [2] was “at least 75%”, the “mortality in comparison” value [3] was “at least 75%” and the “mortality in comparison” value [4] was “at least 75%”. For the same compound, the “mortality in comparison” value [5] was “at least 50%”.
